Source: patent US8647824B2, “Microbial reductive dehalogenation of vinyl chloride” (The Board of Trustees of the Leland Stanford Junior …, priority 2004, dated 2014)
Where “and” joins values, the source holds several entries; their conditions need not be identical. Identical values can stand only once. Marks after values point to notes of the source that are not given here.

Legend:
[1] = system: highly enriched culture of strain VS; assay: Batch dechlorination and growth, highly enriched culture of strain VS; assay type: cell-based, Dehalococcoides species strain VS; conditions: for Final VC rate / Final cells: after utilization of the substance; for Final VC rate / Mass dechlorinated: duplicate bottles; for Final cells: duplicates, computed from VC rate; for Initial VC rate: before utilization of the substance, average and range of replicates; for Growth yield by competitive PCR: strain VS grown on the substance
Experimental: (§1) The purpose of the second study was to compare dechlorination rates of PCE, TCE and DCE between the three different cultures that grew on VC (Victoria, KB-1/VC and Pinellas). The development of inocula here was performed with VC, just as in the first study. For the growth and substrate utilization experiments, triplicate bottles were set up for each culture containing 1 mL of inoculum and either neat PCE (0.4 μL), neat TCE (0.3 μL), saturated DCE solution (34 μL) or gaseous VC (200 μL). To further investigate TCE removal, bottles (120 mL) were filled with 20 mL of a highly enriched culture of strain VS made from the Victoria culture. Duplicate bottles were supplied with gaseous VC (50 μL on day 0, then 150 μL on day 3) or TCE (0.4 μL neat liquid). Dechlorination was followed until all VC or TCE was converted to ethene (day 12). The change in strain VS concentration during VC and TCE utilization was then determined both by competitive PCR and by an activity procedure evaluated previously for strain VS. In the activity procedure a non-growth limiting concentration of VC (150 μL) along with excess hydrogen is added to a culture and the initial dechlorination rate is measured (over <1 day). A good estimate of strain VS concentration can then be obtained using the previously determined strain VS maximum VC utilization rate (7.8×10^−10 μmol Cl^− (cell·d)^−1). The increase in strain VS concentration during TCE or VC utilization was determined with these two procedures on the culture before and after TCE and VC utilization.
Comparative dechlorination and growth kinetics. With mixed cultures, the concentration of organisms carrying out a particular reaction is generally unknown and difficult to determine. Thus, reaction rates with mixed cultures are generally reported in units that cannot be used for comparative purposes. For example, dechlorination rates have been reported in mass removal rate per microcosm or bottle, per unit liquid volume, per unit of total biomass or per unit of total protein. However, the approach described here allows us to make direct comparisons of basic dechlorination and growth kinetics between cultures. The main parameter used in this comparison is organism maximum growth rate, which is directly related to dechlorination kinetics. The maximum growth rate for each culture was determined from a least-squares model fit to experimental data. For this purpose, the dechlorination of TCE, DCE, and VC was modeled using Monod kinetics with competitive kinetics between the multiple electron acceptors involved in dechlorination (for the case when electron donor is non-rate-limiting):
Modeling approach. The above procedure was utilized to compare VC, DCE and TCE maximum growth rates between the Dehalococcoides like-microorganisms in the three cultures (strain VS, KB-1/VC and Pinellas). Previously determined VC and DCE half-velocity and competitive coefficients were included in this modeling approach (Table 2). Also, a previously determined decay coefficient (0.05 d^−1) for cells growing under optimal conditions (non-limiting electron acceptor and donor) was included. This leaves the maximum growth rates on individual chlorinated ethenes (μV, μD, or μT) as the only fitting parameters, which were determined, together with the 95% confidence interval) using non-linear least-squares fit to the experimental data.
DNA isolation and competitive PCR. For the Victoria, Pinellas, and KB-1/VC genomic DNA was extracted (1 mL) from the inoculum used in the VC growth comparison study and also from cultures in the comparative substrate utilization study following complete TCE dechlorination. DNA was extracted using a DNeasy® tissue system (Qiagen Inc, Valencia, Calif.), following the manufacture's instructions (final volume 200 μL). DNA was extracted from the D. ethenogenes strain 195 culture following dechlorination of DCE. […]

[2] = system: Victoria mixed culture, containing strain VS; assay: Batch dechlorination and growth kinetics, Victoria mixed culture; assay type: cell-based, Dehalococcoides species strain VS; conditions: for Maximum Growth Rate: VS Mixed (Victoria) culture, 95% confidence interval, least-squares model fit
Text: Stock cultures. The Victoria mixed culture, containing strain VS, was maintained in a closed continuously stirred tank reactor (CSTR) as previously described. A VC enrichment of this culture, maintained over 5 years, was also used in these investigations. Liquid cultures of the three other cultures evaluated (Pinellas, KB-1/VC, and Dehalococcoides ethenogenes strain 195) were kept in anaerobic bottles, stored in an anaerobic chamber (10% H2, 10% CO2, 80% N2). The bottles were amended with TCE (1-3 μL neat liquid), VC (250 μL gas), and PCE (1-3 μL neat liquid) being added to each, respectively, approximately every two weeks.
Batch studies. For the experimental portion of this research, two studies were undertaken, one a comparative VC growth study, and the other a comparative growth and substrate utilization study with different chlorinated ethenes. These studies compared the dechlorination abilities of Dehalococcoides ethenogenes strain 195 and the Dehalococcoides-like microorganisms in the three mixed cultures (Victoria, KB-1/VC, and Pinellas).
For the first study, a VC enriched inoculum was first developed for each of the three mixed cultures. Here, bottles (120 mL) were filled with 60 mL of anaerobic media in an anaerobic chamber as previously described, and inoculated with 200 μL of each stock culture. Gaseous VC (99.5%) was added with a gas tight syringe (200 μL). The cultures were then moved to a shaker (60-80 rpm) in an anaerobic chamber (20±2° C.). Immediately after 5 μmol of ethene was formed in a bottle, 200 μL of the culture was transferred to fresh media (60 mL), in triplicate, and VC was again added (200 μL). The inoculum for the growth study was that formed after exactly 4 μmol of ethene was produced following this second transfer. To compare growth rates on VC, a range in concentration of each inocula (0.1, 0.3, 1, 3, 9 mL) was transferred to fresh media (as above) to result in a liquid volume of 60 mL, and gaseous VC (200 μL) was added to each. […] Hydrogen served as the electron donor and was non-limiting (>3%) in all studies. Headspace samples were periodically removed by syringe (250 μL) for chlorinated ethene analyses.
as §1
Comparative dechlorination and growth kinetics. With mixed cultures, the concentration of organisms carrying out a particular reaction is generally unknown and difficult to determine. […]

SMILES | Final VC rate [1] | Final cells [1] | Initial VC rate [1] | Mass dechlorinated [1] | Growth yield by competitive PCR [1] | Maximum Growth Rate [2] | time to form 5 μmol of ethene ([2]; Victoria culture, 200 μL VC) [days] | Half velocity coefficient KT ([1]; Highly enriched culture) [µM] | Maximum Growth Rate ([1]; Highly enriched strain VS culture, 95% confidence interval) | Half velocity coefficient KT ([2]; VS Mixed culture) [µM]
C=CCl [VC, vinyl chloride] | 228 µmol·days/L and 204 µmol·days/L | 2.9 × 10^11 cell L^−1 and 2.6 × 10^11 cell L^−1 | 28 ± 2^a nmol (d · L)^−1 | 10.39 µmol and 10.52 µmol | 5.2±0.4×10^8 cell/μmol Cl^− | 0.49 day⁻¹ and 0.49 ± 0.02 day⁻¹ | 18 |  |  | 
ClC=C(Cl)Cl [TCE, trichloroethene] | 312 µmol·days/L and 204 µmol·days/L | 4.0 × 10^11 cell L^−1 and 2.6 × 10^11 cell L^−1 | 28 ± 2^a nmol (d · L)^−1 | 10.94 µmol and 8.97 µmol | 4.7±0.3×10^8 cell/μmol Cl^− | 0.35 ± 0.07 day⁻¹ |  | 12.4 ± 0.6 | 0.35 day⁻¹ and 0.35 ± 0.13 day⁻¹ | 9.0 ± 0.4
